Measured values taken from PubChem BioAssay (NCI).
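The compound was tested at five concentrations on cells cultured in 96-well plates, with a 48-hour exposure period. TGI denotes the concentration required for complete inhibition of growth.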

Experiments:
Test in all cases: inhibition of tumour cell growth, NCI panel, 48 h
[1] = system: A549 NSCLC
[2] = system: MDA-MB-435
[3] = system: SNB-19 CNS
[4] = system: MDA-MB-231 breast
[5] = system: A498 renal
[6] = system: MDA-N
[7] = system: U251 CNS
[8] = system: NCI-H522 lung
[9] = system: UO-31 renal
[10] = system: SK-OV-3 ovarian
[11] = system: SR leukemia
[12] = system: NCI-H460 lung
[13] = system: IGROV1 ovarian
[14] = system: SW-620 colon
[15] = system: MALME-3M melanoma
[16] = system: HS 578T breast
[17] = system: EKVX NSCLC
[18] = system: 786-0 renal
[19] = system: HCT-116 colon
[20] = system: HOP-62 NSCLC

Compound: CN(C)CCCCN1c2ccccc2Sc2ccc(C(=O)c3ccccc3)cc21
- TGI [1]: 7.22 µM
- TGI [2]: 3.51 µM
- TGI [3]: 12 µM
- TGI [4]: 5.2 µM
- TGI [5]: 32.5 µM
- TGI [6]: 6.74 µM
- TGI [7]: 7.52 µM
- TGI [8]: 6.84 µM
- TGI [9]: 10 µM
- TGI [10]: 27.2 µM
- TGI [11]: > 100 µM
- TGI [12]: 5.46 µM
- TGI [13]: 7.89 µM
- TGI [14]: 2.91 µM
- TGI [15]: 3.33 µM
- TGI [16]: 9.69 µM
- TGI [17]: 15.9 µM
- TGI [18]: 4.83 µM
- TGI [19]: 4.9 µM
- TGI [20]: 6.99 µM

Compound: Clc1cc(Br)c2c3c(c(Br)cc(Cl)c13)C(Br)=C2Br
- TGI [1]: > 100 µM
- TGI [2]: > 100 µM
- TGI [3]: > 100 µM
- TGI [4]: 82 µM
- TGI [5]: > 100 µM
- TGI [6]: > 100 µM
- TGI [7]: > 100 µM
- TGI [8]: 38.8 µM
- TGI [9]: > 100 µM
- TGI [10]: > 100 µM
- TGI [11]: 58.1 µM
- TGI [12]: > 100 µM
- TGI [13]: 36.5 µM
- TGI [14]: > 100 µM
- TGI [15]: > 100 µM
- TGI [16]: > 100 µM
- TGI [17]: > 100 µM
- TGI [18]: 47.7 µM
- TGI [19]: 40.3 µM
- TGI [20]: > 100 µM

Compound: NS(=O)(=O)c1ccc(Nc2c3ccccc3nc3c(C(=O)NCCO)cccc23)cc1
- TGI [1]: 0.448 µM
- TGI [2]: 0.513 µM
- TGI [3]: 0.355 µM
- TGI [4]: 0.362 µM
- TGI [5]: 0.229 µM
- TGI [6]: 0.412 µM
- TGI [7]: 0.205 µM
- TGI [8]: 0.272 µM
- TGI [9]: 0.532 µM
- TGI [10]: 0.649 µM
- TGI [11]: 0.0607 µM
- TGI [12]: 0.186 µM
- TGI [13]: 0.45 µM
- TGI [14]: 0.277 µM
- TGI [15]: 0.268 µM
- TGI [16]: 0.79 µM
- TGI [17]: 0.772 µM
- TGI [18]: 0.283 µM
- TGI [19]: 0.412 µM
- TGI [20]: 0.443 µM

Compound: CN(C)/C=N/NC(=O)/C(C#N)=C/N(C)C
- TGI [1]: > 100 µM
- TGI [2]: > 100 µM
- TGI [3]: > 100 µM
- TGI [4]: > 100 µM
- TGI [5]: > 100 µM
- TGI [6]: > 100 µM
- TGI [7]: > 100 µM
- TGI [8]: > 100 µM
- TGI [9]: > 100 µM
- TGI [10]: > 100 µM
- TGI [11]: > 100 µM
- TGI [12]: > 100 µM
- TGI [13]: > 100 µM
- TGI [14]: > 100 µM
- TGI [15]: > 100 µM
- TGI [16]: > 100 µM
- TGI [17]: > 100 µM
- TGI [18]: > 100 µM
- TGI [19]: > 100 µM
- TGI [20]: > 100 µM

Compound: Nc1ncnc2c1ncn2[C@H]1CC[C@@H](NO)C1
- TGI [1]: > 100 µM
- TGI [2]: > 100 µM
- TGI [3]: > 100 µM
- TGI [4]: > 100 µM
- TGI [5]: > 100 µM
- TGI [6]: > 100 µM
- TGI [7]: > 100 µM
- TGI [8]: > 100 µM
- TGI [9]: > 100 µM
- TGI [10]: > 100 µM
- TGI [11]: > 100 µM
- TGI [12]: > 100 µM
- TGI [13]: > 100 µM
- TGI [14]: > 100 µM
- TGI [15]: > 100 µM
- TGI [16]: > 100 µM
- TGI [17]: > 100 µM
- TGI [18]: > 100 µM
- TGI [19]: > 100 µM
- TGI [20]: > 100 µM

Compound: C1=NCCNCCNCCN=Cc2ccccc2OCc2cccc(n2)COc2ccccc21
- TGI [1]: > 100 µM
- TGI [2]: 30 µM
- TGI [3]: > 100 µM
- TGI [4]: > 100 µM
- TGI [5]: > 100 µM
- TGI [6]: 45.3 µM
- TGI [7]: 66.3 µM
- TGI [8]: > 100 µM
- TGI [9]: > 100 µM
- TGI [10]: > 100 µM
- TGI [11]: 88.9 µM
- TGI [12]: > 100 µM
- TGI [13]: > 100 µM
- TGI [14]: > 100 µM
- TGI [15]: > 100 µM
- TGI [16]: > 100 µM
- TGI [17]: > 100 µM
- TGI [18]: > 100 µM
- TGI [19]: > 100 µM
- TGI [20]: > 100 µM

Compound: CN1CCN(CCCCN2c3ccccc3Sc3cc(N=[N+]=[N-])ccc32)CC1
- TGI [1]: 3.93 µM
- TGI [2]: 3.17 µM
- TGI [3]: 10.8 µM
- TGI [4]: 4.14 µM
- TGI [5]: 22.8 µM
- TGI [6]: 11.2 µM
- TGI [7]: 7.83 µM
- TGI [8]: 3.31 µM
- TGI [9]: 3.76 µM
- TGI [10]: 22 µM
- TGI [11]: > 100 µM
- TGI [12]: 3.8 µM
- TGI [13]: 4.26 µM
- TGI [14]: 3.47 µM
- TGI [15]: 3.28 µM
- TGI [16]: 5.02 µM
- TGI [17]: 15.1 µM
- TGI [18]: 3.03 µM
- TGI [19]: 2.98 µM
- TGI [20]: 6.63 µM

Compound: Cc1ccc2[nH]c3c(c2c1)C1CCC(C(C)(C)C)CC1C1C(=O)N(c2ccc4c(c2)OCO4)C(=O)C31 (stereo not given)
- TGI [1]: 6.38 µM
- TGI [2]: 20.5 µM
- TGI [3]: 7.97 µM
- TGI [4]: 5.11 µM
- TGI [5]: 3.48 µM
- TGI [6]: 17.6 µM
- TGI [7]: 4.77 µM
- TGI [8]: 7.18 µM
- TGI [9]: 7.28 µM
- TGI [10]: 6.86 µM
- TGI [11]: 3.73 µM
- TGI [12]: 3.27 µM
- TGI [13]: 6.68 µM
- TGI [14]: 7.95 µM
- TGI [15]: 6.14 µM
- TGI [16]: 3.53 µM
- TGI [17]: 10.1 µM
- TGI [18]: 3 µM
- TGI [19]: 6.36 µM
- TGI [20]: 4.24 µM

Compound: O=c1c2cc([N+](=O)[O-])ccc2n2n1CCCC2
- TGI [1]: > 100 µM
- TGI [2]: > 100 µM
- TGI [3]: > 100 µM
- TGI [4]: > 100 µM
- TGI [5]: > 100 µM
- TGI [6]: > 100 µM
- TGI [7]: > 100 µM
- TGI [8]: > 100 µM
- TGI [9]: > 100 µM
- TGI [10]: > 100 µM
- TGI [11]: > 100 µM
- TGI [12]: > 100 µM
- TGI [13]: > 100 µM
- TGI [14]: > 100 µM
- TGI [15]: > 100 µM
- TGI [16]: > 100 µM
- TGI [17]: > 100 µM
- TGI [18]: > 100 µM
- TGI [19]: > 100 µM
- TGI [20]: > 100 µM

Compound: COc1cccc(Cc2cc(=O)c3ccc(C)nc3[nH]2)c1
- TGI [1]: > 100 µM
- TGI [2]: > 100 µM
- TGI [3]: > 100 µM
- TGI [4]: > 100 µM
- TGI [5]: > 100 µM
- TGI [6]: > 100 µM
- TGI [7]: > 100 µM
- TGI [8]: 65 µM
- TGI [9]: > 100 µM
- TGI [10]: > 100 µM
- TGI [11]: > 100 µM
- TGI [12]: > 100 µM
- TGI [13]: > 100 µM
- TGI [14]: > 100 µM
- TGI [15]: > 100 µM
- TGI [16]: > 100 µM
- TGI [17]: > 100 µM
- TGI [18]: > 100 µM
- TGI [19]: > 100 µM
- TGI [20]: > 100 µM

Compound: Clc1ccc(-c2ccc(-c3nn4c(CNc5ccccc5)nnc4s3)o2)c(Cl)c1
- TGI [1]: > 100 µM
- TGI [2]: > 100 µM
- TGI [3]: > 100 µM
- TGI [4]: > 100 µM
- TGI [5]: > 100 µM
- TGI [6]: > 100 µM
- TGI [7]: > 100 µM
- TGI [8]: > 100 µM
- TGI [9]: > 100 µM
- TGI [10]: > 100 µM
- TGI [11]: > 100 µM
- TGI [12]: > 100 µM
- TGI [13]: > 100 µM
- TGI [14]: > 100 µM
- TGI [15]: > 100 µM
- TGI [16]: > 100 µM
- TGI [17]: > 100 µM
- TGI [18]: > 100 µM
- TGI [19]: > 100 µM
- TGI [20]: > 100 µM

Compound: O=C(O)[C@@H]1NC[C@H]2C(Br)=NO[C@H]21
- TGI [1]: > 100 µM
- TGI [2]: > 100 µM
- TGI [3]: > 100 µM
- TGI [4]: > 100 µM
- TGI [5]: > 100 µM
- TGI [6]: > 100 µM
- TGI [7]: > 100 µM
- TGI [8]: > 100 µM
- TGI [9]: > 100 µM
- TGI [10]: > 100 µM
- TGI [11]: > 100 µM
- TGI [12]: > 100 µM
- TGI [13]: > 100 µM
- TGI [14]: > 100 µM
- TGI [15]: > 100 µM
- TGI [16]: > 100 µM
- TGI [17]: > 100 µM
- TGI [18]: > 100 µM
- TGI [19]: > 100 µM
- TGI [20]: > 100 µM

Compound: CC(=N\N=C\c1ccccn1)/C(C)=N/N=C(C)/C(C)=N/N=C/c1ccccn1
- TGI [1]: > 100 µM
- TGI [2]: > 100 µM
- TGI [3]: > 100 µM
- TGI [4]: > 100 µM
- TGI [5]: > 100 µM
- TGI [6]: > 100 µM
- TGI [7]: > 100 µM
- TGI [8]: > 100 µM
- TGI [9]: > 100 µM
- TGI [10]: > 100 µM
- TGI [11]: > 100 µM
- TGI [12]: > 100 µM
- TGI [13]: > 100 µM
- TGI [14]: > 100 µM
- TGI [15]: > 100 µM
- TGI [16]: > 100 µM
- TGI [17]: > 100 µM
- TGI [18]: > 100 µM
- TGI [19]: > 100 µM
- TGI [20]: > 100 µM

Compound: COC(=O)/C=C(\S/C(=N\n1cc(C(=O)OC)c(C(=O)OC)c1-c1ccc(C)cc1)c1ccc(C)cc1)C(=O)OC
- TGI [1]: 51.8 µM
- TGI [2]: 13.5 µM
- TGI [3]: > 61 µM
- TGI [4]: 11.7 µM
- TGI [5]: 30 µM
- TGI [6]: 12.7 µM
- TGI [7]: 14.1 µM
- TGI [8]: 3.7 µM
- TGI [9]: 8.48 µM
- TGI [10]: > 57.3 µM
- TGI [11]: 67.3 µM
- TGI [12]: > 56.6 µM
- TGI [13]: 44.5 µM
- TGI [14]: 5.53 µM
- TGI [15]: 13.9 µM
- TGI [16]: 62.8 µM
- TGI [17]: 32.8 µM
- TGI [18]: 9.69 µM
- TGI [19]: 4.2 µM
- TGI [20]: 41.6 µM
